Results taken from patent US20200325127A1, “PYRIDIN-3-YL ACETIC ACID DERIVATIVES AS INHIBITORS OF HUMAN IMMUNODEFICIENCY VIRUS REPLICATION” (priority 2016, published 2020).
pEC50: −log10 of the molar value. Like-named read-outs stand apart in the source and are kept apart here.

Test system: NL-RLuc virus
Test: Inhibition of HIV replication (NL-RLuc luciferase reporter virus in MT-2 cells)
Type: cell-based
Conditions: Human immunodeficiency virus 1, MT2, 120 h; for pEC50: read-out: Activity; for EC50: read-out: EC50 μM
Description: Inhibition of HIV replication: A recombinant NL-RLuc proviral clone was constructed in which a section of the nef gene from NL4-3 was replaced with the Renilla Luciferase gene. This virus is fully infectious and can undergo multiple cycles of replication in cell culture. In addition, the luciferous reporter provides a simple and easy method for quantitating the extent of virus growth and consequently, the antiviral activity of test compounds. The plasmid pNLRLuc contains the proviral NL-Rluc DNA cloned into pUC18 at the PvuII site. The NL-RLuc virus was prepared by transfection of 293T cells with the plasmid pNLRLuc. Transfections were performed using the LipofectAMINE PLUS kit from Invitrogen (Carlsbad, Calif.) according to the manufacturer and the virus generated was titered in MT-2 cells. For susceptibility analyses, the titrated virus was used to infect MT-2 cells in the presence of compound, and after 5 days of incubation, cells were processed and quantitated for virus growth by the amount of expressed luciferase. Assay media was RPMI 1640 supplemented with 10% heat inactivated fetal bovine serum (FBS), 100 units/ml penicillin G/100 units/ml streptomycin, 10 mM HEPES buffer pH 7.55 and 2 mM L-glutamine. The results from at least 2 experiments were used to calculate the EC50 values. Luciferase was quantitated using the Dual Luciferase kit from Promega (Madison, Wis.). Susceptibility of viruses to compounds was determined by incubation in the presence of serial dilutions of the compound. The 50% effective concentration (EC50) was calculated by using the exponential form of the median effect equation where (Fa)=1/[1+(ED50/drug conc.)^m](Johnson V A, Byington R T. Infectivity Assay. In Techniques in HIV Research. ed. Aldovini A, Walker B D. 71-76. New York: Stockton Press. 1990). Activity equal to A refers to a compound having an EC50≤100 nM, while B and C denote compounds having an EC50 between 100 nM and 1 uM (B) or >1 uM (C).

Cc1nc(C)c([C@H](OC(C)(C)C)C(=O)O)c(N2CCC(C)(C)CC2)c1-c1ccc2c(c1)CCN(c1cc(O)nc(N)n1)C2 [Compound 66]
pEC50: 6.00 to 7.00 | EC50: 0.32 µM

Cc1nc(C)c([C@H](OC(C)(C)C)C(=O)O)c(N2CCC(C)(C)CC2)c1-c1ccc2c(c1)CCN(c1nc3c(s1)C(=O)NCC3)C2 [Compound 4]
pEC50: > 7.00

Cc1nc(C)c([C@H](OC(C)(C)C)C(=O)O)c(N2CCC(C)(C)CC2)c1-c1ccc2c(c1)CCN(c1ccnc(N)n1)C2 [Compound 67]
pEC50: > 7.00

Cc1nc(C)c([C@H](OC(C)(C)C)C(=O)O)c(N2CCC(C)(C)CC2)c1-c1ccc2c(c1)CCN(c1ncccc1C(=O)O)C2 [Compound 16]
pEC50: 6.00 to 7.00

COc1ccc2c(N3CCc4cc(-c5c(C)nc(C)c([C@H](OC(C)(C)C)C(=O)O)c5N5CCC(C)(C)CC5)ccc4C3)ncnc2c1 [Compound 80]
EC50: 0.001 µM

COc1ccc2ncnc(N3CCc4cc(-c5c(C)nc(C)c([C@H](OC(C)(C)C)C(=O)O)c5N5CCC(C)(C)CC5)ccc4C3)c2c1 [Compound 81]
EC50: 0.002 µM

COc1cnc(SC)nc1N1CCc2cc(-c3c(C)nc(C)c([C@H](OC(C)(C)C)C(=O)O)c3N3CCC(C)(C)CC3)ccc2C1 [Compound 57]
pEC50: > 7.00

COc1cc(N2CCc3cc(-c4c(C)nc(C)c([C@H](OC(C)(C)C)C(=O)O)c4N4CCC(C)(C)CC4)ccc3C2)nc(SC)n1 [Compound 62]
pEC50: > 7.00 | EC50: 0.004 µM

Cc1nc(C)c([C@H](OC(C)(C)C)C(=O)O)c(N2CCC(C)(C)CC2)c1-c1ccc2c(c1)CCN(c1ccc3cnccc3n1)C2 [Compound 70]
EC50: 0.0005 µM

Cc1nc(C)c([C@H](OC(C)(C)C)C(=O)O)c(N2CCC(C)(C)CC2)c1-c1ccc2c(c1)CCN(c1cc(C3CC3)ncn1)C2 [Compound 43]
pEC50: > 7.00

CCc1ccnc(N2CCc3cc(-c4c(C)nc(C)c([C@H](OC(C)(C)C)C(=O)O)c4N4CCC(C)(C)CC4)ccc3C2)n1 [Compound 32]
pEC50: > 7.00

Cc1nc(C)c([C@H](OC(C)(C)C)C(=O)O)c(N2CCC(C)(C)CC2)c1-c1ccc2c(c1)CCN(c1nccc(-c3ccccc3)n1)C2 [Compound 8]
pEC50: > 7.00

Cc1nc(C)c([C@H](OC(C)(C)C)C(=O)O)c(N2CCC(C)(C)CC2)c1-c1ccc2c(c1)CCN(c1cc(Cl)ncn1)C2 [Compound 27]
pEC50: > 7.00

Cc1nc(C)c([C@H](OC(C)(C)C)C(=O)O)c(N2CCC(C)(C)CC2)c1-c1ccc2c(c1)CCN(c1ncc(C#N)cn1)C2 [Compound 22]
pEC50: 6.00 to 7.00

Cc1nc(C)c([C@H](OC(C)(C)C)C(=O)O)c(N2CCC(C)(C)CC2)c1-c1ccc2c(c1)CCN(c1nc(-c3ccccc3)cs1)C2 [Compound 3]
pEC50: > 7.00

Cc1nc(C)c([C@H](OC(C)(C)C)C(=O)O)c(N2CCC(C)(C)CC2)c1-c1ccc2c(c1)CCN(c1ncccn1)C2 [Compound 18]
pEC50: > 7.00

Cc1nc(C)c([C@H](OC(C)(C)C)C(=O)O)c(N2CCC(C)(C)CC2)c1-c1ccc2c(c1)CCN(c1nc(N3CCOCC3)nc(N3CCOCC3)n1)C2 [Compound 37]
pEC50: > 7.00

Cc1nc(C)c([C@H](OC(C)(C)C)C(=O)O)c(N2CCC(C)(C)CC2)c1-c1ccc2c(c1)CCN(c1ccncn1)C2 [Compound 20]
pEC50: > 7.00 | EC50: 0.002 µM

COc1ccc(N2CCc3cc(-c4c(C)nc(C)c([C@H](OC(C)(C)C)C(=O)O)c4N4CCC(C)(C)CC4)ccc3C2)nn1 [Compound 47]
pEC50: > 7.00

Cc1nc(C)c([C@H](OC(C)(C)C)C(=O)O)c(N2CCC(C)(C)CC2)c1-c1ccc2c(c1)CCN(c1nnnn1-c1ccccc1)C2 [Compound 1]
pEC50: > 7.00 | EC50: 0.006 µM

Cc1nc(C)c([C@H](OC(C)(C)C)C(=O)O)c(N2CCC(C)(C)CC2)c1-c1ccc2c(c1)CCN(c1ncnc3ccc(F)cc13)C2 [Compound 85]
EC50: 0.002 µM

COc1cnc(N2CCc3cc(-c4c(C)nc(C)c([C@H](OC(C)(C)C)C(=O)O)c4N4CCC(C)(C)CC4)ccc3C2)nc1 [Compound 34]
pEC50: > 7.00

CSc1nc(N2CCc3cc(-c4c(C)nc(C)c([C@H](OC(C)(C)C)C(=O)O)c4N4CCC(C)(C)CC4)ccc3C2)cc(C(F)(F)F)n1 [Compound 63]
pEC50: > 7.00

Cc1nc(C)c([C@H](OC(C)(C)C)C(=O)O)c(N2CCC(C)(C)CC2)c1-c1ccc2c(c1)CCN(c1ccccn1)C2 [Compound 46]
pEC50: > 7.00

Cc1nc(C)c([C@H](OC(C)(C)C)C(=O)O)c(N2CCC(C)(C)CC2)c1-c1ccc2c(c1)CCN(c1cc(N3CCCC3)ncn1)C2 [Compound 48]
pEC50: > 7.00 | EC50: 0.003 µM

Cc1nc(C)c([C@H](OC(C)(C)C)C(=O)O)c(N2CCC(C)(C)CC2)c1-c1ccc2c(c1)CCN(c1ccnc(C(F)(F)F)n1)C2 [Compound 60]
pEC50: > 7.00

COc1ncnc(N2CCc3cc(-c4c(C)nc(C)c([C@H](OC(C)(C)C)C(=O)O)c4N4CCC(C)(C)CC4)ccc3C2)c1C [Compound 50]
pEC50: > 7.00

Cc1nc(C)c([C@H](OC(C)(C)C)C(=O)O)c(N2CCC(C)(C)CC2)c1-c1ccc2c(c1)CCN(c1cnc3ccccc3n1)C2 [Compound 71]
EC50: 0.01 µM

Cc1nc(C)c([C@H](OC(C)(C)C)C(=O)O)c(N2CCC(C)(C)CC2)c1-c1ccc2c(c1)CCN(c1cc(Cl)cnn1)C2 [Compound 28]
pEC50: > 7.00

Cc1nc(C)c([C@H](OC(C)(C)C)C(=O)O)c(N2CCC(C)(C)CC2)c1-c1ccc2c(c1)CCN(c1ccc(C(F)(F)F)nn1)C2 [Compound 35]
pEC50: > 7.00 | EC50: 0.01 µM

Cc1nccc(N2CCc3cc(-c4c(C)nc(C)c([C@H](OC(C)(C)C)C(=O)O)c4N4CCC(C)(C)CC4)ccc3C2)n1 [Compound 41]
pEC50: > 7.00

Cc1nc(C)c([C@H](OC(C)(C)C)C(=O)O)c(N2CCC(C)(C)CC2)c1-c1ccc2c(c1)CCN(c1nc(N(C)C)c3ccccc3n1)C2 [Compound 82]
EC50: 0.001 µM

Cc1cc(N2CCc3cc(-c4c(C)nc(C)c([C@H](OC(C)(C)C)C(=O)O)c4N4CCC(C)(C)CC4)ccc3C2)nc(C(C)C)n1 [Compound 44]
pEC50: > 7.00

Cc1cn(-c2ccc(N3CCc4cc(-c5c(C)nc(C)c([C@H](OC(C)(C)C)C(=O)O)c5N5CCC(C)(C)CC5)ccc4C3)nn2)cn1 [Compound 69]
pEC50: > 7.00
